# Laboratory results as given in patent publication US9056840B2, “Coelenterazine analogues and coelenteramide analogues” (JNC Corporation, priority 2010, dated 2015).
# Columns and labels:
# Format in all cases: physicochemical
# apoaequorin [1] = target: T1, apoaequorin (Aequorea victoria, UniProt P07164); test: Fluorescence spectra of semi-synthetic BFP (coelenteramide analogue + apoaequorin, CaCl2); details: 10 mM CaCl2 buffer, excitation 337 nm
# T1 construct: purchased Chisso Corporation
# Experimental: Semi-synthetic gFP was prepared from recombinant apoaequorin and coelenteramide analogues as follows. In 1 ml of 50 mM Tris-HC 1 (pH 7.6) containing 10 mM CaCl2 and 1 mM DTT, apoaequorin (0.2 mg) was mixed with 8 μl of a coelenteramide analogue (1 μg/μl in anhydrous methanol). The mixture was allowed to stand at 4° C. for 16 hours to prepare semi-synthetic BFP-like protein (hereinafter sometimes simply referred to as “semi-synthetic BFP”).
# (§1) The fluorescence spectra were determined as follows. For coelenteramide analogue alone, the fluorescence was measured according to the procedures for semi-synthetic gFP and semi-synthetic BFP described in EXAMPLES 11 and 12, except for in the absence of apoaequorin, using 1 ml of 50 mM Tris-HCl (pH 7.6) containing 10 mM EDTA and 1 mM DTT or 1 ml of 50 mM Tris-HCl (pH 7.6) containing 10 mM CaCl2 and 1 mM DTT, in the final concentration of coelenteramide analogue adjusted to 8 μg/ml. The fluorescence spectra were measured at 25° C. in a quartz cell (10 mm light path length) using a Jasco FP-6500 spectrofluorometer (excitation wavelength: 337 nm, emission/excitation bandwidth: 3 nm; response: 0.5 sec, scan speed, 1000 nm/min).
# [2] = Fluorescence spectra of coelenteramide analogue alone (absence of apoaequorin); details: analogue alone 8 μg/ml; for Coelenteramide (Buffer containing CaCl2) Fluorescence intensity (rlu) / Coelenteramide (Buffer containing CaCl2) Maximum fluorescence wavelength λmax (nm): 10 mM CaCl2 buffer pH 7.6, excitation 337 nm; for Coelenteramide (EDTA-containing buffer) Fluorescence intensity (rlu) / Coelenteramide (EDTA-containing buffer) Maximum fluorescence wavelength λmax (nm): 10 mM EDTA buffer pH 7.6, excitation 337 nm
# Experimental: as §1
# apoaequorin [3] = target: T1, apoaequorin; test: Fluorescence spectra of semi-synthetic gFP (coelenteramide analogue + apoaequorin, EDTA); details: 10 mM EDTA buffer, excitation 337 nm
# Experimental: Semi-synthetic gFP was prepared from recombinant apoaequorin and coelenteramide analogues as follows. In 1 ml of 50 mM Tris-HC 1 (pH 7.6) containing 10 mM EDTA and 1 mM DTT, apoaequorin (0.2 mg) was mixed with 8 μl of a coelenteramide analogue (1 μg/μl in anhydrous methanol). The mixture was allowed to stand 4° C. for 16 hours to prepare semi-synthetic gFP-like protein (hereinafter sometimes simply referred to as “semi-synthetic gFP”).
# as §1
# T1 sequence (P07164 other isoform, or with tags, fused parts or gaps with the stated changes): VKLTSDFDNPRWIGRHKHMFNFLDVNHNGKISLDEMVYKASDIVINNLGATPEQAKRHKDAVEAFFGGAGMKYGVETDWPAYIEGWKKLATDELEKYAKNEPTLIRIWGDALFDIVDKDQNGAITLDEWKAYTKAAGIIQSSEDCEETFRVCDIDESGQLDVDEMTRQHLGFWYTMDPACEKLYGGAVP
Structure (SMILES),Fluorescence intensity (apoaequorin [1]) [rlu],Semi-synthetic BFP (Buffer containing CaCl2) Maximum fluorescence wavelength λmax (nm) (apoaequorin [1]),Coelenteramide (Buffer containing CaCl2) Fluorescence intensity (rlu) [2] [rlu],Coelenteramide (Buffer containing CaCl2) Maximum fluorescence wavelength λmax (nm) [2] [nm],Coelenteramide (EDTA-containing buffer) Fluorescence intensity (rlu) [2] [rlu],Coelenteramide (EDTA-containing buffer) Maximum fluorescence wavelength λmax (nm) [2] [nm],Semi-synthetic gFP (EDTA-containing buffer) Fluorescence intensity (rlu) (apoaequorin [3]),Semi-synthetic gFP (EDTA-containing buffer) Maximum fluorescence wavelength λmax (nm) (apoaequorin [3])
"O=C(Cc1ccc(O)cc1)Nc1ncc(-c2ccc(O)cc2)nc1-c1cccs1 [Compound 4f, 2-(4-Hydroxyphenyl)-N-[5-(4-hydroxyphenyl)-3-(thiophen-2-yl)pyrazin-2-yl]acetamide]",96.4,527.0,2.2,447.0,2.3,448.5,70.5,536.5
"Oc1ccc(NC(=S)Nc2ncc(-c3ccc(O)cc3)nc2Cc2ccccc2)cc1 [Compound 4v, 1-[3-Benzyl-5-(4-hydroxyphenyl)pyrazin-2-yl]-3-(4-hydroxyphenyl)thiourea]",3.3,430.5,1.4,466.0,1.4,484.0,3.6,491.0
"O=C(Nc1ncc(-c2ccc(O)cc2)nc1Cc1ccccc1)c1cccc2cc(O)ccc12 [Compound 4z, N-[3-Benzyl-5-(4-hydroxyphenyl)pyrazin-2-yl]-6-hydroxy-1-naphthamide]",24.6,487.0,13.2,410.5,20.2,409.5,246.3,492.5
"O=C(Cc1ccc(O)cc1)Nc1ncc(-c2ccc(O)cc2)nc1-c1ccc([N+](=O)[O-])cc1 [Compound 4o, 2-(4-Hydroxyphenyl)-N-[5-(4-hydroxyphenyl)-3-(4-nitrophenyl)pyrazin-2-yl]acetamide]",3.9,477.5,2.1,478.5,2.1,482.5,3.4,485.0
"O=C(Nc1ccc(O)cc1)Nc1ncc(-c2ccc(O)cc2)nc1Cc1ccccc1 [Compound 4u, 1-[3-Benzyl-5-(4-hydroxyphenyl)pyrazin-2-yl]-3-(4-hydroxyphenyl)urea]",–,–,0.9,445.5,0.7,440.5,11.4,494.5
"O=C(Nc1ncc(-c2ccc(O)cc2)nc1Cc1ccccc1)c1cccc(O)c1 [Compound 4y, N-[3-Benzyl-5-(4-hydroxyphenyl)pyrazin-2-yl]-3-hydroxybenzamide]",–,–,1.4,457.0,1.3,456.0,44.8,492.0
"CN(C)c1ccc(-c2nc(-c3ccc(O)cc3)cnc2NC(=O)Cc2ccc(O)cc2)cc1 [Compound 4n, N-[3-{4-(Dimethylamino)phenyl}-5-(4-hydroxyphenyl)pyrazin-2-yl]-2-(4-hydroxyphenyl)acetamide]",231.3,487.5,–,–,–,–,151.5,485.5
"O=C(Cc1ccc(O)cc1)Nc1ncc(-c2ccc(O)cc2)nc1-c1ccc(O)cc1 [Compound 4j, N-[3,5-Bis(4-hydroxyphenyl)pyrazin-2-yl]-2-(4-hydroxyphenyl)acetamide]",100.5,489.0,22.4,481.0,22.5,482.5,69.7,492.5
"O=C(Cc1ccc(O)cc1)Nc1ncc(-c2ccc(O)cc2)nc1-c1cccc2ccccc12 [Compound 4d, 2-(4-Hydroxyphenyl)-N-[5-(4-hydroxyphenyl)-3-(naphthalen-1-yl)pyrazin-2-yl]acetamide]",98.3,487.0,12.9,463.5,12.4,462.5,58.8,504.5
"O=C(Cc1ccc(O)cc1)Nc1ncc(-c2ccc(O)cc2)nc1Br [Compound 4t, N-[3-Bromo-5-(4-hydroxyphenyl)pyrazin-2-yl]-2-(4-hydroxyphenyl)acetamide]",–,–,12.1,482.0,11.8,480.5,22.0,482.5
O=C(Cc1ccc(O)cc1)Nc1ncc(-c2ccc(O)cc2)nc1/C=C/c1ccccc1 [Compound 4b],52.7,544.5,9.4,494.5,7.1,495.5,43.2,530.0
"O=C(Cc1ccc(O)cc1)Nc1ncc(-c2ccc(O)cc2)nc1-c1cc2ccccc2s1 [Compound 4h, N-[3-(Benzo[b]thiophen-2-yl)-5-(4-hydroxyphenyl)pyrazin-2-yl]-2-(4-hydroxyphenyl) acetamide]",153.3,427.0,101.2,426.5,115.2,426.5,–,–
"O=C(Cc1ccc(O)cc1)Nc1ncc(-c2ccc(O)cc2)nc1-c1ccc(-c2cccs2)s1 [Compound 4m, N-[3-(2,2′-Bithiophen-5-yl)-5-(4-hydroxyphenyl)pyrazin-2-yl]-2-(4-hydroxyphenyl) acetamide]",182.4,457.5,–,–,–,–,163.8,482.5
"O=C(Nc1ncc(-c2ccc(O)cc2)nc1Cc1ccccc1)c1ccc(O)cc1 [Compound 4x, N-[3-Benzyl-5-(4-hydroxyphenyl)pyrazin-2-yl]-4-hydroxybenzamide]",36.8,485.0,1.4,450.0,1.3,449.0,–,–
